Experimental data as given in patent publication US20230293526A1, “METHOD FOR TREATING CANCER WITH A REVERSE TRANSCRIPTASE INHIBITOR” (PrimeFour Therapeutics, Inc., priority 2020, published 2023).

Legend:
human LINE-1 = assay: Human LINE-1 (L1) retrotransposition dual-luciferase reporter assay in HeLa cells; assay type: cell-based; details: Homo sapiens, HeLa, 72 h, read-out: Human LINE-1 IC50 (Human L1 activity inhibition)
How it was run: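 HeLa cells transfected with dual-luciferase L1 plasmid pYX017 (100 ng/well), dosed immediately after with serially diluted compounds (0.2% DMSO final) in triplicate and incubated 72 h at 37 °C. Relative L1 activity = Firefly/Renilla ×10,000; IC50 from logistic non-linear regression.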

cancer cell lines = assay: Cancer cell proliferation activity of representative nucleosides, CellTiterGlo 72 h (Example 7, Tables 8 and 9); assay type: cell-based; details: 72 h
How it was run: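 Cancer cell lines seeded and incubated at 37° C overnight, then exposed to nucleosides (final DMSO 0.1%) for 72 h at 37° C with 5% or 10% CO2. Viability read by CellTiterGlo luminescence and normalized to 0.1% DMSO (100%) and 10 μM staurosporine (0%) controls.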

## CC[C@]1(CO)O[C@@H](n2cnc3c(N)nc(N)nc32)C[C@@H]1O [compound 25]
Human LINE-1
  IC50: 0.0036 µM
Cancer cell lines; 72 h, 5637, bladder
  IC50: 3.52 µM
Cancer cell lines; CLS439, bladder
  IC50: > 50 µM
Cancer cell lines; HS729, muscle
  IC50: 3.42 µM
Cancer cell lines; J82, bladder
  IC50: > 50 µM
Cancer cell lines; JAR, placenta
  IC50: > 50 µM
Cancer cell lines; MT3, breast
  IC50: 1.62 µM
Cancer cell lines; PC3, prostate
  IC50: 3.02 µM
Cancer cell lines; RD, muscle
  IC50: 3.39 µM
Cancer cell lines; T24, bladder
  IC50: > 50 µM
Cancer cell lines; Homo sapiens, 22Rv1, 72 h, 22RV1, prostate
  IC50: > 50 µM
Cancer cell lines; Homo sapiens, 786-0, 72 h, 786O, kidney
  IC50: > 50 µM
Cancer cell lines; Homo sapiens, A204, 72 h, A204, muscle
  IC50: 1.58 µM
Cancer cell lines; Homo sapiens, A549, 72 h, A549, lung
  IC50: 3.25 µM
Cancer cell lines; Homo sapiens, A673, 72 h, A673, bone
  IC50: > 50 µM
Cancer cell lines; Homo sapiens, A2780, 72 h, A2780, ovary
  IC50: > 50 µM
Cancer cell lines; Homo sapiens, A-375, 72 h, A375, skin
  IC50: 2.34 µM
Cancer cell lines; Homo sapiens, A-431, 72 h, A431, skin
  IC50: > 50 µM
Cancer cell lines; Homo sapiens, ACHN, kidney
  IC50: 5.89 µM
Cancer cell lines; Homo sapiens, ASPC1, 72 h, ASPC1, pancreas
  IC50: 5.31 µM
Cancer cell lines; Homo sapiens, BT-20, 72 h, BT20, breast
  IC50: > 50 µM
Cancer cell lines; Homo sapiens, BXPC-3, 72 h, BXPC3, pancreas
  IC50: 3.54 µM
Cancer cell lines; Homo sapiens, C-33-A, C33A, endometrial
  IC50: 3.7 µM
Cancer cell lines; Homo sapiens, CAKI-1, 72 h, CAKI1, kidney
  IC50: 5.33 µM
Cancer cell lines; Homo sapiens, COLO 205, 72 h, COLO205, colon
  IC50: 1.8 µM
Cancer cell lines; Homo sapiens, COLO-678, 72 h, COLO678, colon
  IC50: > 50 µM
Cancer cell lines; Homo sapiens, Ca-Ski, CASKI, endometrial
  IC50: > 50 µM
Cancer cell lines; Homo sapiens, Caco-2, 72 h, CACO2, colon
  IC50: > 50 µM
Cancer cell lines; Homo sapiens, Calu-6, 72 h, CALU6, lung
  IC50: 6.13 µM
Cancer cell lines; Homo sapiens, DLD-1, 72 h, DLD1, colon
  IC50: > 50 µM
Cancer cell lines; Homo sapiens, DU-145, 72 h, DU145, prostate
  IC50: 6.33 µM
Cancer cell lines; Homo sapiens, EFO-21, 72 h, EFO21, ovary
  IC50: > 50 µM
Cancer cell lines; Homo sapiens, EJ-28, 72 h, EJ28, bladder
  IC50: > 50 µM
Cancer cell lines; Homo sapiens, Granta-519, 72 h, GRANTA-519, hematological
  IC50: 0.89 µM
Cancer cell lines; Homo sapiens, HCT-15, 72 h, HCT15, colon
  IC50: > 50 µM
Cancer cell lines; Homo sapiens, HCT-116, 72 h, HCT116, colon
  IC50: 3.2 µM
Cancer cell lines; Homo sapiens, HEK293, 72 h, HEK293, kidney
  IC50: 6.09 µM
Cancer cell lines; Homo sapiens, HL-60, 72 h, HL-60, hematological
  IC50: 3.46 µM
Cancer cell lines; Homo sapiens, HT-29, 72 h, HT29, colon
  IC50: > 50 µM
Cancer cell lines; Homo sapiens, HT-1080, 72 h, HT1080, connective tissue
  IC50: 3.72 µM
Cancer cell lines; Homo sapiens, HeLa, endometrial
  IC50: 3.1 µM
Cancer cell lines; Homo sapiens, HepG2, 72 h, HEPG2, liver
  IC50: > 50 µM
Cancer cell lines; Homo sapiens, Hs-578T, HS578T, breast
  IC50: > 50 µM
Cancer cell lines; Homo sapiens, IGROV-1, 72 h, IGROV1, ovary
  IC50: > 50 µM
Cancer cell lines; Homo sapiens, IMR-90, 72 h, IMR90, lung
  IC50: 3.47 µM
Cancer cell lines; Homo sapiens, JEG-3, 72 h, JEG3, placenta
  IC50: > 50 µM
Cancer cell lines; Homo sapiens, JIMT-1, 72 h, JIMT1, breast
  IC50: 5.55 µM
Cancer cell lines; Homo sapiens, K562, 72 h, K-562, hematological
  IC50: > 50 µM
Cancer cell lines; Homo sapiens, Kasumi 1, 72 h, KASUMI-1, hematological
  IC50: 0.18 µM
Cancer cell lines; Homo sapiens, L-363, 72 h, L-363, hematological
  IC50: 3.29 µM
Cancer cell lines; Homo sapiens, LoVo, colon
  IC50: > 50 µM
Cancer cell lines; Homo sapiens, MCF7, 72 h, MCF7, breast
  IC50: 5.68 µM
Cancer cell lines; Homo sapiens, MDA-MB-231, 72 h, MDAMB231, breast
  IC50: 2.85 µM
Cancer cell lines; Homo sapiens, MDA-MB-435, 72 h, MDAMB435, skin
  IC50: > 50 µM
Cancer cell lines; Homo sapiens, MDA-MB-436, 72 h, MDAMB436, breast
  IC50: 5.23 µM
Cancer cell lines; Homo sapiens, MDA-MB-468, 72 h, MDAMB468, breast
  IC50: > 50 µM
Cancer cell lines; Homo sapiens, MG-63, 72 h, MG63, bone
  IC50: 4.11 µM
Cancer cell lines; Homo sapiens, MHH-ES-1, 72 h, MHHES1, bone
  IC50: 3.92 µM
Cancer cell lines; Homo sapiens, MIA PaCa-2, 72 h, MIAPACA2, pancreas
  IC50: > 50 µM
Cancer cell lines; Homo sapiens, MINO, hematological
  IC50: 1.51 µM
Cancer cell lines; Homo sapiens, MV4-11, 72 h, MV4-11, hematological
  IC50: 2.25 µM
Cancer cell lines; Homo sapiens, NCI-H23, 72 h, NCI-H23, lung
  IC50: 1.68 µM
Cancer cell lines; Homo sapiens, NCI-H82, 72 h, NCIH82, lung
  IC50: > 50 µM
Cancer cell lines; Homo sapiens, NCI-H292, 72 h, NCIH292, lung
  IC50: 5.22 µM
Cancer cell lines; Homo sapiens, NCI-H460, 72 h, NCIH460, ung
  IC50: > 50 µM
Cancer cell lines; Homo sapiens, OVCAR-3, 72 h, OVCAR3, ovary
  IC50: 1.82 µM
Cancer cell lines; Homo sapiens, OVCAR-4, 72 h, OVCAR4, ovary
  IC50: 3.27 µM
Cancer cell lines; Homo sapiens, PANC-1, 72 h, PANC1, pancreas
  IC50: > 50 µM
Cancer cell lines; Homo sapiens, PLC-PRF-5, 72 h, PLCPRF5, liver
  IC50: > 50 µM
Cancer cell lines; Homo sapiens, Panc1005, 72 h, PANC1005, pancreas
  IC50: 6.31 µM
Cancer cell lines; Homo sapiens, Ramos, hematological
  IC50: 1.85 µM
Cancer cell lines; Homo sapiens, SAOS-2, 72 h, SAOS2, bone
  IC50: 1.73 µM
Cancer cell lines; Homo sapiens, SF-268, 72 h, SF268, brain
  IC50: > 50 µM
Cancer cell lines; Homo sapiens, SF-295, 72 h, SF295, brain
  IC50: > 50 µM
Cancer cell lines; Homo sapiens, SK-BR-3, 72 h, SKBR3, breast
  IC50: 3.13 µM
Cancer cell lines; Homo sapiens, SK-HEP1, 72 h, SKHEP1, liver
  IC50: 4.99 µM
Cancer cell lines; Homo sapiens, SK-LMS-1, 72 h, SKLMS1, uterus
  IC50: > 50 µM
Cancer cell lines; Homo sapiens, SK-MEL-5, 72 h, SKMEL5, skin
  IC50: > 50 µM
Cancer cell lines; Homo sapiens, SK-MEL-28, 72 h, SKMEL28, skin
  IC50: 3.1 µM
Cancer cell lines; Homo sapiens, SK-N-AS, SKNAS, brain
  IC50: 0.75 µM
Cancer cell lines; Homo sapiens, SK-N-SH, SKNSH, brain
  IC50: 0.6 µM
Cancer cell lines; Homo sapiens, SK-OV-3, 72 h, SKOV3, ovary
  IC50: 2.37 µM
Cancer cell lines; Homo sapiens, SNB-75, 72 h, SNB75, brain
  IC50: > 50 µM
Cancer cell lines; Homo sapiens, SU-DHL10, 72 h, SU-DHL-10, hematological
  IC50: 4.83 µM
Cancer cell lines; Homo sapiens, SU-DHL-6, 72 h, SU-DHL-6, hematological
  IC50: 6.01 µM
Cancer cell lines; Homo sapiens, SW-620, 72 h, SW620, colon
  IC50: > 50 µM
Cancer cell lines; Homo sapiens, TE-671, 72 h, TE671, muscle
  IC50: 3.05 µM
Cancer cell lines; Homo sapiens, THP-1, 72 h, THP-1, hematological
  IC50: 3.23 µM
Cancer cell lines; Homo sapiens, U2OS, bone
  IC50: > 50 µM
Cancer cell lines; Homo sapiens, U-87 MG, U87MG, brain
  IC50: 5.24 µM
Cancer cell lines; Homo sapiens, UMUC3, 72 h, UMUC3, bladder
  IC50: > 50 µM
Cancer cell lines; Homo sapiens, UO-31, 72 h, UO31, kidney
  IC50: > 50 µM
Cancer cell lines; Homo sapiens, WSU-NHL, hematological
  IC50: 2.55 µM
Cancer cell lines; NCI-H358M, NCIH358M, lung
  IC50: 1.63 µM
Cancer cell lines; PBMC, hematological
  IC50: > 50 µM
Cancer cell lines; RD-ES, RDES, bone
  IC50: > 50 µM
